Reference: ChEMBL document CHEMBL5137024, “Discovery of novel coumarin-indole derivatives as tubulin polymerization inhibitors with potent anti-gastric cancer activities” (Eur J Med Chem, 2022)
Calls of active or inactive are those of the source. The rule behind the calls is not given here.

Assays:
[1] = system: HGC-27; test: Downregulation of phosphorylated ATF-2 expression in human HGC-27 cells incubated for 48 hrs; type: functional, cell-based; settings: dose 10-30 nM, DDE = dose-dependent effect
[2] = system: MGC-803; test: Antiproliferative activity against human MGC-803 cells assessed as reduction in cell viability incubated for 12 to 48 hrs by MTT assay; type: functional, cell-based; settings: dose 15-30 nM, time 12-48 hrs, DDE = dose-dependent effect
[3] = system: HGC-27; test: Induction of apoptosis in human HGC-27 cells assessed as increase in cleavage caspase 3 level; type: functional, cell-based; settings: dose 10-30 nM, DDE = dose-dependent effect
[4] = system: HGC-27; test: Induction of apoptosis in human HGC-27 cells assessed as upregulation of DR5 level; type: functional, cell-based; settings: dose 10-30 nM, DDE = dose-dependent effect
[5] = system: HGC-27; test: Inhibition of ERK signalling pathway in human HGC-27 cells assessed as downregulation of c-Raf phosphorylation at 10 to 30 nM incubated for 48 hrs; type: cell-based; settings: dose 10-30 nM
[6] = system: HCT-116; test: cells; settings: Homo sapiens, HCT-116, 48 h
[7] = system: HGC-27; test: Downregulation of cdc2 phosphorylation at Thr14 residue in human HGC-27 cells at 10 to 30 nM incubated for 48 hrs; type: functional, cell-based; settings: dose 10-30 nM
[8] = system: MGC-803; test: Downregulation of vimentin expression in human MGC-803 cells incubated for 48 hrs; type: functional, cell-based; settings: dose 5-15 nM, DDE = dose-dependent effect
[9] = system: HGC-27; test: Antiproliferative activity against human HGC-27 cells assessed as inhibition of cell growth at 10 to 30 nM incubated for 60 hrs; type: functional, cell-based; settings: dose 10-30 nM
[10] = system: HGC-27; test: Downregulation of Wee1 expression in human HGC-27 cells at 10 to 30 nM incubated for 48 hrs; type: functional, cell-based; settings: dose 10-30 nM
[11] = molecular target: Tubulin (Homo sapiens) (UniProt P68371+Q9H4B7+P0DPH7+P68366+Q13509+Q71U36+P04350+Q3ZCM7+P07437+P68363+Q9BQE3+Q6PEY2+Q13885+Q9BVA1+Q9BUF5); test: Disruption of microtubule network in human HGC-27 cells assessed as irregular form of filamentous microtubule structures at 10 to 30 nM measured after 48 hrs by DAPI staining based fluorescence microscopic analysis; type: cell-based; settings: dose 10-30 nM
[12] = Induction of mitochondria mediated intrinsic apoptosis in human HGC-27 cells assessed as late apoptotic cells at 30 nM measured after 48 hrs by flow cytometry analysis (reference value: 93.6%); type: functional
[13] = system: HGC-27; test: Inhibition of ERK signalling pathway in human HGC-27 cells assessed as reduction in downstream substrate p90RSK phosphorylation at 10 to 30 nM incubated for 48 hrs; type: cell-based; settings: dose 10-30 nM
[14] = system: HepG2; test: Antiproliferative activity against human HepG2 cells assessed as reduction in cell viability incubated for 48 hrs by MTT assay; type: functional, cell-based; settings: HepG2, 48 h
[15] = system: MGC-803; test: Antitumor activity against human MGC-803 cells xenografted BALB/c nude mouse assessed as tumor growth inhibition at 30 mg/kg, ip administered once daily for 21 days; type: functional; settings: MGC-803, 504 h, time 21 day, read-out: TGI
[16] = system: HGC-27; test: Induction of apoptosis in human HGC-27 cells assessed as decrease in cell density at 10 to 30 nM incubated for 48 hrs by bright field imaging analysis; type: functional, cell-based; settings: dose 10-30 nM
[17] = system: HGC-27; test: Induction of apoptosis in human HGC-27 cells assessed as increase in dead cells at 10 to 30 nM incubated for 48 hrs by calcein-AM dye/propidium iodide staining based analysis; type: functional, cell-based; settings: dose 10-30 nM
[18] = system: MGC-803; test: Induction of apoptosis in human MGC-803 cells assessed as nuclear concentration at 5 to 15 nM incubated for 48 hrs by DAPI staining based analysis; type: functional, cell-based; settings: dose 5-15 nM
[19] = system: CWR22R; test: Antiproliferative activity against human 22Rv1 cells assessed as reduction in cell viability incubated for 48 hrs by MTT assay; type: functional, cell-based; settings: 22Rv1, 48 h
[20] = molecular target: Tubulin beta (Homo sapiens) (UniProt P68371+Q9H4B7+Q13509+P04350+Q3ZCM7+P07437+Q13885+Q9BVA1+Q9BUF5+A6NNZ2); test: Binding affinity to beta-tubulin colchicine binding site in human HGC-27 cells assessed as decrease in beta-tubulin adduct band incubated for 2 hrs by EBI alkylate competition assay; type: cell-based; settings: dose 0.075-0.75 µM, DDE = dose-dependent effect
[21] = system: MGC-803; test: Antiproliferative activity against human MGC-803 cells assessed as reduction in cell viability at 15 to 30 nM by MTT assay; type: functional, cell-based; settings: dose 15-30 nM, time 12-48 hrs, TDE = time-dependent effect
[22] = Induction of mitochondria mediated intrinsic apoptosis in human HGC-27 cells assessed as late apoptotic cells at 10 nM measured after 48 hrs by flow cytometry analysis (Rvb= 93.6%); type: functional
[23] = system: SH-SY5Y; test: Antiproliferative activity against human SH-SY5Y cells assessed as reduction in cell viability incubated for 48 hrs by MTT assay; type: functional, cell-based
[24] = system: HGC-27; test: Inhibition of p38 signalling pathway in human HGC-27 cells assessed as reduction in MKK3/6 phosphorylation at 10 to 30 nM incubated for 48 hrs; type: cell-based; settings: dose 10-30 nM
[25] = system: MGC-803; test: Inhibition of ERK signalling pathway in human MGC-803 cells assessed as reduction in downstream substrate MSK1 phosphorylation at 5 to 15 nM incubated for 48 hrs; type: cell-based; settings: dose 5-15 nM
[26] = system: HGC-27; test: Downregulation of FoxO3a expression in human HGC-27 cells incubated for 48 hrs; type: functional, cell-based; settings: dose 10-30 nM, DDE = dose-dependent effect
[27] = system: MGC-803; test: Downregulation of cyclin B1 expression in human MGC-803 cells at 5 to 15 nM incubated for 48 hrs; type: functional, cell-based; settings: dose 5-15 nM
[28] = system: NCI-H520; test: Antiproliferative activity against human NCI-H520 cells assessed as reduction in cell viability incubated for 48 hrs by MTT assay; type: functional, cell-based; settings: NCI-H520, 48 h
[29] = Induction of mitochondria mediated intrinsic apoptosis in human MGC-803 cells assessed as early apoptotic cells at 10 nM measured after 48 hrs by flow cytometry analysis (Rvb= 1.6%); type: functional
[30] = system: MGC-803; test: Induction of apoptosis in human MGC-803 cells assessed as increase in Noxa level; type: functional, cell-based; settings: dose 5-15 nM, DDE = dose-dependent effect
[31] = Induction of mitochondria mediated intrinsic apoptosis in human HGC-27 cells assessed as early apoptotic cells at 20 nM measured after 48 hrs by flow cytometry analysis (Rvb= 6.4%); type: functional
[32] = molecular target: Tubulin (Sus scrofa, UniProt P02554+P02550); test: Inhibition of porcine brain tubulin polymerization by fluorescence based assay; type: tissue-based
[33] = Induction of mitochondria mediated intrinsic apoptosis in human MGC-803 cells assessed as late apoptotic cells at 5 nM measured after 48 hrs by flow cytometry analysis (Rvb= […]); type: functional
[34] = system: HGC-27; test: Induction of cell cycle arrest in human HGC-27 cells assessed as accumulation of cells at G2/M phase at 15 nM incubated for 48 hrs by propidium iodide staining based flow cytometry analysis (reference value: 11%); type: functional
[35] = system: MGC-803; test: Antitumor activity against human MGC-803 cells xenografted BALB/c nude mouse assessed as inhibition of tumor volume at 15 to 30 mg/kg, ip administered once daily for 21 days and measured every 2 days; type: functional, organism-based; settings: dose 15-30 mg/kg, time 21.0 day
[36] = system: HGC-27; test: Induction of apoptosis in human HGC-27 cells assessed as increase in cleavage substrate PARP level; type: functional, cell-based; settings: dose 10-30 nM, DDE = dose-dependent effect
[37] = system: MGC-803; test: Induction of apoptosis in human MGC-803 cells assessed as nuclear fragmentation at 5 to 15 nM incubated for 48 hrs by DAPI staining based analysis; type: functional, cell-based; settings: dose 5-15 nM

For `CN(c1ccc2c(ccn2C)c1)c1cc(=O)oc2ccccc12`, the Activity [1] was “Dde”, the Activity [2] was “Dde” and the Activity [3] was “Dde”. For the same compound, the Activity [4] was “Dde”, the inhibition [5] was “Active” and the IC50 [6] was 33 nM. The Activity [7] was “Active”, the Activity [8] was “Dde” and the inhibition [9] was “Active”. For the same compound, the Activity [10] was “Active”, the Activity [11] was “Active” and the Activity [12] was 74.4%. For the same compound, the inhibition [13] was “Active”, the IC50 [14] was 45.5 nM and the inhibition in vivo at 30 mg/kg [15] was 80%. The Activity [16] was “Active”, the Activity [17] was “Active” and the Activity [18] was “Active”. The IC50 [19] was 558 nM, the Activity [20] was “Dde” and the Activity [21] was “Tde”. For the same compound, the Activity [22] was 91.6%, the IC50 [23] was 19.4 nM and the inhibition [24] was “Active”. The inhibition [25] was “Active”, the Activity [26] was “Dde” and the Activity [27] was “Active”. For the same compound, the IC50 [28] was 33.4 nM, the Activity [29] was 7.2% and the Activity [30] was “Dde”. It also gave an Activity [31] of 21.6%, an IC50 [32] of 2460 nM and an Activity [33] of 98.1%. The Activity [34] was 85%, the Activity [35] was “Active” and the Activity [36] was “Dde”. For the same compound, the Activity [37] was “Active”.
